Data as given in PubChem BioAssay AID2060484 (Molecular Pharmacology Branch, DTP, NCI, 2025).
pIC50: −log10 of the molar value.

Tested on: SUM149PT spheroids with HUVEC/MSC, viability
Experiment: Anticancer human tumor SUM149PT cell line growth inhibition [GQUAD];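 also: spheroids exposed to drugs for seven days before readout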;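 as to viability, T/C: percent viability relative to DMSO vehicle control taken as 100%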
Conditions: for pIC50: curve of first compound; for viability, T/C: stronger effect = lower value
Procedure, shortened: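 Viability of tumor cells grown as complex spheroids with endothelial and stromal cells, exposed to drug combinations. Top concentration at or near clinical Cmax (else 10 microM), diluted in half-log increments.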

[1] = second compound 0.0316 µM, first compound 0.0316 µM
[2] = second compound 0.0316 µM, first compound 0.316 µM
[3] = second compound 0.1 µM, first compound 0.0316 µM
[4] = second compound 0.1 µM, first compound 0.316 µM
[5] = second compound 0.316 µM, first compound 0.0316 µM
[6] = second compound 0.316 µM, first compound 0.316 µM
[7] = second compound 1 µM, first compound 0.0316 µM
[8] = second compound 1 µM, first compound 0.316 µM
[9] = second compound 3.16 µM, first compound 0.0316 µM
[10] = second compound 3.16 µM, first compound 0.316 µM
[11] = second compound 10 µM, first compound 0.0316 µM
[12] = second compound 10 µM, first compound 0.316 µM
[13] = second compound 0.0316 µM, first compound 0.1 µM
[14] = second compound 0.0316 µM, first compound 1 µM
[15] = second compound 0.0316 µM, first compound 3.16 µM
[16] = second compound 0.0316 µM, first compound 10 µM
[17] = second compound 0.1 µM, first compound 0.1 µM
[18] = second compound 0.1 µM, first compound 1 µM
[19] = second compound 0.1 µM, first compound 3.16 µM
[20] = second compound 0.1 µM, first compound 10 µM
[21] = second compound 0.316 µM, first compound 0.1 µM
[22] = second compound 0.316 µM, first compound 1 µM
[23] = second compound 0.316 µM, first compound 3.16 µM
[24] = second compound 0.316 µM, first compound 10 µM
[25] = second compound 1 µM, first compound 0.1 µM
[26] = second compound 1 µM, first compound 1 µM
[27] = second compound 1 µM, first compound 3.16 µM
[28] = second compound 1 µM, first compound 10 µM
[29] = second compound 3.16 µM, first compound 0.1 µM
[30] = second compound 3.16 µM, first compound 1 µM
[31] = second compound 3.16 µM, first compound 3.16 µM
[32] = second compound 3.16 µM, first compound 10 µM
[33] = second compound 10 µM, first compound 0.1 µM
[34] = second compound 10 µM, first compound 1 µM
[35] = second compound 10 µM, first compound 3.16 µM
[36] = second compound 10 µM, first compound 10 µM

Compound: CCc1c2c(nc3ccc(O)cc13)-c1cc3c(c(=O)n1C2)COC(=O)[C@]3(O)CC + Cc1cnc(CNC(=O)c2c(=O)c3ccc(N4CCCN(C)CC4)nc3n3c2sc2ccccc23)cn1
- pIC50 (second compound 0.0316 µM): > 9.00
- pIC50 (second compound 0.1 µM): > 9.00
- pIC50 (second compound 0.316 µM): > 9.00
- pIC50 (second compound 1 µM): > 9.00
- pIC50 (second compound 3.16 µM): > 9.00
- pIC50 (second compound 10 µM): > 9.00
- viability, T/C (second compound 0.0316 µM, first compound 0.000999 µM): 45%
- viability, T/C (second compound 0.0316 µM, first compound 0.00316 µM): 30.6%
- viability, T/C (second compound 0.0316 µM, first compound 0.00999 µM): 42.1%
- viability, T/C [1]: 30.6%
- viability, T/C (second compound 0.0316 µM, first compound 0.0999 µM): 25.9%
- viability, T/C [2]: 12.1%
- viability, T/C (second compound 0.1 µM, first compound 0.000999 µM): 38.9%
- viability, T/C (second compound 0.1 µM, first compound 0.00316 µM): 40.9%
- viability, T/C (second compound 0.1 µM, first compound 0.00999 µM): 44.6%
- viability, T/C [3]: 38.9%
- viability, T/C (second compound 0.1 µM, first compound 0.0999 µM): 25.1%
- viability, T/C [4]: 10.2%
- viability, T/C (second compound 0.316 µM, first compound 0.000999 µM): 38.7%
- viability, T/C (second compound 0.316 µM, first compound 0.00316 µM): 42.8%
- viability, T/C (second compound 0.316 µM, first compound 0.00999 µM): 41.1%
- viability, T/C [5]: 33.8%
- viability, T/C (second compound 0.316 µM, first compound 0.0999 µM): 21.8%
- viability, T/C [6]: 10.8%
- viability, T/C (second compound 1 µM, first compound 0.000999 µM): 37%
- viability, T/C (second compound 1 µM, first compound 0.00316 µM): 41.2%
- viability, T/C (second compound 1 µM, first compound 0.00999 µM): 37.1%
- viability, T/C [7]: 35.5%
- viability, T/C (second compound 1 µM, first compound 0.0999 µM): 19.7%
- viability, T/C [8]: 8.28%
- viability, T/C (second compound 3.16 µM, first compound 0.000999 µM): 33.1%
- viability, T/C (second compound 3.16 µM, first compound 0.00316 µM): 38.7%
- viability, T/C (second compound 3.16 µM, first compound 0.00999 µM): 37.1%
- viability, T/C [9]: 31%
- viability, T/C (second compound 3.16 µM, first compound 0.0999 µM): 21.9%
- viability, T/C [10]: 3.55%
- viability, T/C (second compound 10 µM, first compound 0.000999 µM): 0.16%
- viability, T/C (second compound 10 µM, first compound 0.00316 µM): 3.09%
- viability, T/C (second compound 10 µM, first compound 0.00999 µM): 0.98%
- viability, T/C [11]: 1.56%
- viability, T/C (second compound 10 µM, first compound 0.0999 µM): 1.51%
- viability, T/C [12]: 1.72%

Compound: O=C(c1cc(Cc2n[nH]c(=O)c3ccccc23)ccc1F)N1CCN(C(=O)C2CC2)CC1 + Cc1cnc(CNC(=O)c2c(=O)c3ccc(N4CCCN(C)CC4)nc3n3c2sc2ccccc23)cn1
- pIC50 (second compound 0.0316 µM): 5.00
- pIC50 (second compound 0.1 µM): < 5.00
- pIC50 (second compound 0.316 µM): 5.30
- pIC50 (second compound 1 µM): > 7.50
- pIC50 (second compound 3.16 µM): > 7.50
- pIC50 (second compound 10 µM): > 7.50
- viability, T/C [1]: 87.6%
- viability, T/C [13]: 72.1%
- viability, T/C [2]: 83.3%
- viability, T/C [14]: 88.3%
- viability, T/C [15]: 80.2%
- viability, T/C [16]: 50%
- viability, T/C [3]: 63.6%
- viability, T/C [17]: 70.1%
- viability, T/C [4]: 65.8%
- viability, T/C [18]: 66.4%
- viability, T/C [19]: 61.4%
- viability, T/C [20]: 44.5%
- viability, T/C [5]: 53.2%
- viability, T/C [21]: 58.5%
- viability, T/C [6]: 55.4%
- viability, T/C [22]: 54.5%
- viability, T/C [23]: 53.6%
- viability, T/C [24]: 44%
- viability, T/C [7]: 43%
- viability, T/C [25]: 47%
- viability, T/C [8]: 47.1%
- viability, T/C [26]: 48.4%
- viability, T/C [27]: 48.5%
- viability, T/C [28]: 42.7%
- viability, T/C [9]: 35.4%
- viability, T/C [29]: 42.2%
- viability, T/C [10]: 40.3%
- viability, T/C [30]: 38.7%
- viability, T/C [31]: 39.5%
- viability, T/C [32]: 37.6%
- viability, T/C [11]: 10.2%
- viability, T/C [33]: 12.1%
- viability, T/C [12]: 27.6%
- viability, T/C [34]: 30.5%
- viability, T/C [35]: 22.6%
- viability, T/C [36]: 2.16%

Compound: CCCS(=O)(=O)Nc1ccc(F)c(C(=O)c2c[nH]c3ncc(-c4ccc(Cl)cc4)cc23)c1F + CN(C)c1ccc(Nc2c3ccc(NC(=O)CCN4CCCC4)cc3nc3cc(NC(=O)CCN4CCCC4)ccc23)cc1
- pIC50 (second compound 0.0316 µM): 5.12
- pIC50 (second compound 0.1 µM): 5.14
- pIC50 (second compound 0.316 µM): 5.11
- pIC50 (second compound 1 µM): 5.38
- pIC50 (second compound 3.16 µM): 5.51
- pIC50 (second compound 10 µM): 5.62
- viability, T/C [1]: 108%
- viability, T/C [13]: 91.9%
- viability, T/C [2]: 103%
- viability, T/C [14]: 98.1%
- viability, T/C [15]: 74.5%
- viability, T/C [16]: 42.4%
- viability, T/C [3]: 95.7%
- viability, T/C [17]: 103%
- viability, T/C [4]: 102%
- viability, T/C [18]: 100%
- viability, T/C [19]: 76.3%
- viability, T/C [20]: 40%
- viability, T/C [5]: 96.4%
- viability, T/C [21]: 96.2%
- viability, T/C [6]: 96.4%
- viability, T/C [22]: 90%
- viability, T/C [23]: 67%
- viability, T/C [24]: 45.3%
- viability, T/C [7]: 92.2%
- viability, T/C [25]: 84.3%
- viability, T/C [8]: 91%
- viability, T/C [26]: 89.7%
- viability, T/C [27]: 54.6%
- viability, T/C [28]: 35.4%
- viability, T/C [9]: 83.2%
- viability, T/C [29]: 89.6%
- viability, T/C [10]: 86.4%
- viability, T/C [30]: 81.7%
- viability, T/C [31]: 49.3%
- viability, T/C [32]: 24%
- viability, T/C [11]: 84.8%
- viability, T/C [33]: 80.4%
- viability, T/C [12]: 89.6%
- viability, T/C [34]: 71.1%
- viability, T/C [35]: 43.2%
- viability, T/C [36]: 11.9%
